Values quoted from earlier work as cited in patent US20170325481A1, “METHOD OF FORMING ENCAPSULATED COMPOSITIONS WITH ENHANCED SOLUBILITY AND STABILITY” (KEMIN INDUSTRIES, INC., priority 2011, published 2017).

Details: multiple nanosize emulsions, 4 weeks of storage at 50° C.

In the case of `CC1=C(/C=C/C(C)=C/C=C/C(C)=C/C=C/C=C(C)/C=C/C=C(C)/C=C/C2=C(C)CCCC2(C)C)C(C)(C)CCC1` [β-carotene], the “β-carotene left after storage” value is listed as 32.3%.
